Results on 35 molecules are retold here after a melting point compilation (Tetko et al.; mined from patent text by program, amines drawn as free bases though some values may be those of a salt).

As to `Cc1nn2c(-c3cc(Cl)ccc3Cl)ccnc2c1C#N`, the melting point is 234 to 236 °C.

In turn, `COC1OCC[C@@H]1NC(=O)[C@H](CC(C)C)NC(=O)CNC(=O)C(C)(C)Oc1ccc2c(c1)Nc1ccccc1S2` (stereo not given in full) returned a melting point of 100 to 104 °C.

As to `Nc1ccc2c(c1)c(=O)oc1cccc(O)c12`, the melting point was > 260 °C.

`CC(=O)Nc1ccc2c(c1)C(=O)CCC2` came in with a melting point of 165 to 166 °C.

`CCN(CC)Cc1cc(Nc2ccnc3cc(Cl)ccc23)c2ccccc2c1O` displayed a melting point of 158 to 160 °C.

`O=C(O)c1cc([N+](=O)[O-])c(Cl)c(S(=O)(=O)Cl)c1`: the melting point lay in the range of 189 to 190 °C.

Molecule `CCCCCCn1c2ccccc2c2ccccc21` had a melting point of 62.5 to 64.1 °C.

`O=C(O)c1ccc(OCC2CC(=O)N(c3ccc(OC4CCCCC4O)cc3)C2)cc1` (stereo not given) gave a melting point of 203 to 208 °C.

With `COc1ccc2c(c1)-c1c(C#N)c(N3CCCCC3)c3c(c1C2)-c1ccccc1C3`, the melting point lay within 216 to 218 °C.

`COc1c(C2CCN(CCCCNC(=O)c3ccc(-c4ccc(NS(C)(=O)=O)cc4)cc3)CC2)ccc2c1CCCC2`: the melting point was 200 to 202 °C.

The molecule `CCOC(=O)C(O)(Cn1cncn1)c1ccc(F)cc1` (stereo not given) had a melting point of 142 to 144 °C.

For the molecule `CN1c2ccccc2CN(C(=O)C(F)(F)F)c2ccccc21`, the melting point is 104 to 106 °C.

The molecule `CC1CCC(NC(=O)NS(=O)(=O)c2ccc(CCNC(=O)N3CCCCC3=O)cc2)C1` (stereo not given) displayed a melting point of 166 to 168 °C.

Molecule `CCCCCCCCCCCCCCOc1cc(OC)cc(N)c1OCOC` displayed a melting point of 66 to 67 °C.

In turn, `CCCCCCCCCCc1sc(NC(=O)Nc2c(C(C)C)cccc2C(C)C)nc1C` registered a melting point of 101 to 108 °C.

Molecule `CC(=O)Nc1ccc(NCC(=O)C23CC4CC(CC(C4)C2)C3)cc1` registered a melting point of 156 to 158 °C.

`CC(C)(C)c1ccc(/C=C/C(=O)Nc2ccc3occc3c2)cc1` returned a melting point of 149 to 150 °C.

`C=CCOc1cn(C)c2cc(OCC(F)(F)F)ccc2c1=O` showed a melting point of 120 °C.

In the case of `CCC(OCC(F)(F)F)c1ccc(Cl)c2nc3n(c12)CCCN3c1ccc(Cl)cc1Cl` (stereo not given), the melting point lay within 146 to 148 °C.

`Cc1cccc(Oc2cccc(NC(=O)c3ccn4c3CSC4c3cccnc3)c2)c1` (stereo not given) came in with a melting point of 149 °C.

Molecule `CC(COc1ccc(O)c(C(N)=O)c1)N(Cc1ccccc1)CC(O)COc1ccc(OCC(N)=O)cc1` (stereo not given) yielded a melting point of 145 to 149 °C.

As for `Cc1cc(C)c(C)c(COc2ccc(-c3ccoc3C(=O)NNC(=O)c3ccc(O)c(C#N)c3)cc2)c1C`, the melting point fell in the range of 183 to 186 °C.

On to `O=C(O)CCCn1sc2ccc([N+](=O)[O-])cc2c1=O`, for which the melting point is 183 to 186 °C.

Turning to `CS(=O)(=O)Nc1ccc(C(N)=O)cc1Oc1ccc(F)cc1F`, the melting point lay in the range of 147 to 150 °C.

`CCc1cncc(-c2nc(C(=O)N(C)C)c3c4ccc(Cl)cc4n(C)c3n2)c1`: the melting point was 218 to 219 °C.

In turn, `CNC(=O)CCSSCCC(=O)NC` showed a melting point of 113 to 115 °C.

Consider `CCCc1c(OCCCOc2ccc(C(=O)OCC)cc2F)ccc(C(C)=O)c1O`, for which the melting point fell in the range of 87 to 88 °C.

In turn, `c1ccc2c(c1)CC(CN1CCN(c3ccc4c(c3)OCC4)CC1)C2` returned a melting point of 171 to 173 °C.

As to `O=C(c1cccs1)c1cnn2c(-c3cccc(-c4ccc(CN5CCOCC5)cc4)c3)ccnc12`, the melting point lay in the range of 175 to 178 °C.

Regarding `Cn1c(C(F)(F)F)cc(=O)n(-c2cc(OC(=O)NCC3CCCCC3)c(Cl)cc2F)c1=O`, the melting point was 132 to 135 °C.

Take `O=P12CN3CN(C1)S(=O)(=O)N(C3)C2`: the melting point was in the range of 245 to 246 °C.

As to `CC1Oc2ccc(C3=NNC(=O)CC3)cc2NC1=O` (stereo not given), the melting point was in the range of 275 to 276 °C.

In turn, `CN(C)Cc1ccc(CSCCNC2=NS(=O)(=O)N=C2N)o1` came in with a melting point of 156 to 158 °C.

Regarding `Cc1ccc(C(Cl)=NOS(C)(=O)=O)cc1`, the melting point was in the range of 100 to 102 °C.

`CC=Cn1c(C(O)(c2ccc(Cl)cc2)c2ccc(Cl)cc2)nc(C)c1C`: the melting point fell in the range of 127 to 128 °C.
